Experimental data from article PMC2607020, “An Unusual Helix Turn Helix Motif in the Catalytic Core of HIV-1 Integrase Binds Viral DNA and LEDGF” (PLoS ONE, 2009).
“Also recorded” adds a separate entry of the source. Like-named read-outs stand apart in the source and are kept apart here.

Legend:
[1] = target: LTR34fm; details: ref [43], cited from earlier work
Excerpt: (§1) In a previous work we pointed out the importance of the conformational entropy in the binding of the α4 helix to the viral DNA. In order to reduce this effect, we had designed an analog of the α4 peptide that had its secondary structure stabilized by helicogenic mutations (Gly149Ala, Ile161Leu, Ile162Leu and Gly163Ala). The resulting peptide, K156, was a good mimic of the α4 helix in the protein context and was better organized for binding than peptide α4.

[2] = test system: LTR34f5′; details: LTR34f5′ vs LTR34fm; ref [43]; cited from earlier work
Excerpt: as §1

[3] = test system: viral DNA; assay: Specific binding of peptide to viral DNA (general statement); set-up: species or system HIV-1; details: Discussion
[4] = target: CRE (cAMP response element); details: negative control sequence CRE; ref [43]; read-out: Kd (non-specific binding); cited from earlier work
Excerpt: The behavior of peptide HTHi is similar to that of peptide K156.

[5] = test system: wt IN; assay: Quenching of the intrinsic fluorescence of wt IN by peptide; type: binding, HIV-1; details: wt IN 100 nM monomer; Trp fluorescence quenching, excitation 295 nm; 20 mM HEPES pH 6.8, 10 mM MgCl2, 10 mM DTT; 5°C
Method: (§2) Like the whole protein, these contain no Trp.
The intrinsic fluorescence of wt IN was measured at 100 nM monomer concentration, in the “reaction buffer” (see above). The Trp residues were excited at 295 nm and emission was recorded between 305 and 450 nm, with 2 nm and 5 nm excitation and emission slit widths, respectively. A maximal emission was obtained at 337 nm. Quenching of the fluorescence of IN following the addition of HTHi or of peptide α4 (devoid of Trp) was expressed as 1-F/F0, where F0 is the fluorescence of the enzyme in the absence of peptide.

[6] = Circular dichroism of free peptide (secondary structure, oligomerisation); type: physicochemical
Excerpt: They were made according to the Fmoc procedure, as already reported for peptide α4, for its “stabilized” analogue i.e., peptide K156, and for the peptide INH5, derived from the α5 helix, [43]. Peptide α4 reproduces the α4 helix sequence of IN; peptide K156 is a variant of the α4 peptide resulting from the replacement of weakly helicogenic residues by more helicogenic ones in several biologically irrelevant positions; peptide INH5 contains both the α5 helix and the turn connecting the α5 helix to the α4 helix. The peptides HTHi and wt HTHi reproduce the sequences of the HTHi motifs in the IN-Phe185Lys variant and in wt IN respectively. A version of the HTHi peptide with a carboxyfluorescein at the N-terminus has also been prepared. Tyr or Trp aromatic residues, when absent in the native sequences, were purposely added in order to enable peptide quantification by UV absorption spectra. Peptide concentrations were determined using a molar absorption coefficient at 280 nm equal to 1 280 M^−1 cm^−1 for the tyrosine-containing peptides α4, INH5 and HTHi and 5600 M^−1 cm^−1 for the tryptophane-containing peptides K156 and […].
CD spectra were recorded on a Jobin-Yvon CD6 dichrograph (HORIBA Jobin-Yvon, France). Peptide concentrations varied from 5 to 25 µM in the “assay buffer”, containing 40 mM sodium phosphate, 0.5 mM EDTA, pH 6.0. The samples, incubated 10 min at the chosen temperature to allow the solutions to reach their equilibrium state, were placed in thermally jacketed cells with a 1 mm path length. The spectra, recorded in 1 nm steps, were averaged over ten scans and corrected for the base line, then presented as differential molar absorptivities per residue, Δε (M^−1 cm^−1), for peptides, and as difference spectra (complex minus DNA), for peptide-DNA complexes. For the HTHi-LTR interaction, aliquots of peptide were added to LTR34 (10 µM) and the control spectrum of unliganded LTR was subtracted from that of the complex. Recall that in a simple random coil – α helix equilibrium, the α-helix content of peptides could be approximated by the relation: Pα = −[Δε222×10] (Pα: percentage of α helix; Δε222: differential molar absorptivity per residue at 222 nm).

[7] = test system: wt IN; details: intrinsic fluorescence of IN; similar conditions; ref [30]; cited from earlier work
Method: In a previous study, based on the intrinsic fluorescence properties of IN conferred by its six Trp residues, we have shown the ability of peptide INH5 (Table 1a) to interact with IN with a concentration midpoint (C0.5) of 168 nM [30].

[8] = test system: IN; details: ref [30]; cited from earlier work
Method: In a previous study, based on the intrinsic fluorescence properties of IN conferred by its six Trp residues, we have shown the ability of peptide INH5 (Table 1a) to interact with IN with a concentration midpoint (C0.5) of 168 nM [30]. […] There are examples in the literature showing that the so-called stabilizing helix of HTH motifs is involved in the protein dimerization. This is the case of topoisomerase II, in which the binding site to DNA is fashioned from the interaction of two HTH motifs. The implication of the α5 helix in the enzyme structure and activity has been highlighted in our previous report showing that peptide INH ...

[9] = target: CRE (cAMP response element); assay: Fluorescence anisotropy titration of CRE (negative control sequence) by peptide; details: CRE 20 nM, curve fitting, ±10% uncertainty, 40 mM sodium phosphate, 0.5 mM EDTA, pH 6.0, 5°C, read-out: Kd (non-specific binding)
Excerpt: (§3) The oligonucleotides (Table 1b) were purchased from Cybergene ESGS (France) and Eurogentec (Belgium). The choice of monomolecular hairpin-forming oligonucleotides, rather than bimolecular duplex-forming ones, was motivated by the need for stability under the low concentrations inherent to the fluorescence anisotropy experiments. The fluorescein reporter group is grafted either to the central T nucleotide (LTR34fm) or to the 5′ extremity (LTR34f5′ and CRE). The CRE (cAMP responsive element) sequence was used as negative control. The version of LTR34 without fluorescein was used in CD studies.
(§4) Fluorescence anisotropy titration, [75]. Fluorescein-labeled oligonucleotides were used at 20 nM in the “assay buffer” (see Table 1b and above). With fluorescein as fluorophore, excitation and emission were at 488 nm and 516 nm, with 4 nm and 5 nm slits, respectively. Peptides were added to DNA as successive aliquots. For each anisotropy measurement, the parallel [drawing 1] and the perpendicular [drawing 2] intensities of the background solution (i.e., buffer and protein contributions) were subtracted from those of the sample.

[10] = target: LTR34f5′; assay: Fluorescence anisotropy titration of LTR34f5′ by peptide; type: binding, HIV-1
Excerpt: as §3, §4

[11] = test system: LTR34; assay: Circular dichroism of peptide-DNA complex (difference spectrum); type: binding, HIV-1; details: HTHi 6 µM + LTR34 10 µM, 40 mM sodium phosphate, 0.5 mM EDTA, pH 6.0
Excerpt: as §3
CD spectra were recorded on a Jobin-Yvon CD6 dichrograph (HORIBA Jobin-Yvon, France). Peptide concentrations varied from 5 to 25 µM in the “assay buffer”, containing 40 mM sodium phosphate, 0.5 mM EDTA, pH 6.0. The samples, incubated 10 min at the chosen temperature to allow the solutions to reach their equilibrium state, were placed in thermally jacketed cells with a 1 mm path length. The spectra, recorded in 1 nm steps, were averaged over ten scans and corrected for the base line, then presented as differential molar absorptivities per residue, Δε (M^−1 cm^−1), for peptides, and as difference spectra (complex minus DNA), for peptide-DNA complexes. […]

[12] = target: LTR34fm; assay: Fluorescence anisotropy titration of LTR34fm by peptide; type: binding, HIV-1; details: LTR34fm 20 nM, curve fitting, ±10% uncertainty, 40 mM sodium phosphate, 0.5 mM EDTA, pH 6.0, 5°C
Excerpt: as §3, §4

[13] = target: T1, LEDGF-IBD (wt IBD) (Homo sapiens, UniProt O75475); assay: Fluorescence anisotropy titration of fluorescein-grafted HTHi by wt LEDGF-IBD; type: binding; details: fluorescein-grafted HTHi 50 nM titrated by wt LEDGF-IBD; pH 6.0; 5°C
T1 construct: The wt IBD is the fragment 347–471 of LEDGF (GST removed); GST (cleaved yes)
T1 sequence (O75475 347-471): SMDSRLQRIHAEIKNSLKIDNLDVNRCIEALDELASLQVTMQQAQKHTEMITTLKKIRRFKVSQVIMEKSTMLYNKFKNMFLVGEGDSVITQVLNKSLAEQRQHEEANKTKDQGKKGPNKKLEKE
Excerpt: as §2

[14] = test system: Asp366Asn-IBD variant of LEDGF; details: fluorescence anisotropy; fluorescein-labeled HTHi 50 nM; pH 6.0; 5°C
Method: The wt IBD is the fragment 347–471 of LEDGF (GST removed) [33], [51], [52]. The mutant IBD is the Asp366Asn version of the former. Like the whole protein, these contain no Trp. […] The proteins were used in the “reaction buffer” containing 20 mM HEPES (pH 6.8), 10 mM MgCl2 and 10 mM DTT.
Intrinsic fluorescence quantum yield and fluorescence anisotropy studies were carried out with a Jobin-Yvon Fluoromax II instrument (HORIBA Jobin-Yvon, France) equipped with an ozone-free 150 W xenon lamp. The samples (800 µl) were placed at 5°C in thermally jacketed 1 cm×0.5 cm quartz cells. At least ten measurements for each titration point were recorded with an integration time of 5 sec.
The fluorescence anisotropy of the fluorescein-conjugated version of HTHi (50 nM) titrated by wt and mutated IBD in the “assay buffer” was used to evaluate the Kd of the LEDGF-HTHi complex.

Compound: SQA 149 KLEEMNK156ELKKLLAQVRAQ168 W
- Kd ([1]; attachment site on the six outermost bases of viral DNA, read-out: Kd1 (high affinity site)): 2.1 nM
- Kd ([1]; non-specific binding, read-out: Kd2 (low affinity site)): 54000 nM
- effect of fluorescein at the 5′ extremity on binding modes [2]: suppressed the high affinity binding mode of K156 but preserved the low affinity mode
- affinity for viral DNA compared with HTHi ([3]; K156 vs HTHi): manifests a greater affinity for viral DNA than peptide HTHi
- Kd [4]: 16000 nM

Compound: SQG149VVESMNK156ELKKIIGQVRY [α4]
- midpoint of titration curve (C0.5) [5]: 53 ± 5 nM
- DNA binding (in words) ([3]; isolated peptide, no value): very poor DNA binder; also recorded: completely unable to specifically bind the viral DNA
- conformation of isolated peptide ([6]; stated in Discussion): mostly displays random conformation

Compound: DQ 168 AEHLKTAVQMAVFIHNY 185KA [INH5, peptide containing both the α5 helix and the turn connecting the α5 helix to the α4 helix]
- concentration midpoint (C0.5) [7]: 168 nM
- effect on IN [8]: caused the dissociation of the tetramers and dimers of IN; also recorded: inhibits IN by dissociating the IN dimers and tetramers

Compound: SQG149VIESMNK156ELKKIIGQVRDQ 168 AEHLKTAVQMAVWIHNF185K [wt HTHi]
- structure compared with that of the mutant bi-helix ([6]; experiments not shown, method not stated): the structure of the wt bi-helix was similar to that of the mutant

Compound: YG149VIESMNK156ELKKIIGQVRDQ 168 AEHLKTAVQMAVFIHNK 185KA [HTHi]
- Kd [9]: 6600 nM
- midpoint of titration curve (C0.5) [5]: 104 ± 8 nM
- Kd ([10]; LTR34f5′ 20 nM, monophasic, fluorescence anisotropy, curve fitting, ±10% uncertainty, 40 mM sodium phosphate, 0.5 mM EDTA, pH 6.0, 5°C): 2900 nM
- effect of fluorescein at the 5′ extremity on high affinity binding ([10]; LTR34f5′ vs LTR34fm): The high affinity is abolished
- change of helical content on binding LTR34 [11]: practically doubles its helical content when binding to LTR34
- Kd ([12]; read-out: Kd1 (high affinity site)): 50 nM
- Kd ([12]; read-out: Kd2 (low affinity, non-specific site)): 1900 nM
- helix content compared with component peptides α4 and INH5 ([6]; CD, spectra of α4 from ref [43] and of INH5 from ref [30]): helix content of HTHi is greater than that of peptides α4 [43] and INH5 [30]
- propensity to form oligomers in solution ([6]; high peptide concentration, CD, pH 6.0): propensity of HTHi to form oligomers in solution at high concentration
- helical content ([6]; peptide 6 µM, 40 mM sodium phosphate, 0.5 mM EDTA, pH 6.0, 1 mm path length): 10–15%
- helical content (in words) ([6]; peptide 25 µM, 40 mM sodium phosphate, 0.5 mM EDTA, pH 6.0): weak amount of helix

Compound: CC[C@H](C)[C@H](NC(=O)[C@H](Cc1ccccc1)NC(=O)[C@@H](NC(=O)[C@H](C)NC(=O)[C@H](CCSC)NC(=O)[C@H](CCC(N)=O)NC(=O)[C@@H](NC(=O)[C@H](C)NC(=O)[C@@H](NC(=O)[C@H](CCCCN)NC(=O)[C@H](CC(C)C)NC(=O)[C@H](Cc1c[nH]cn1)NC(=O)[C@H](CCC(=O)O)NC(=O)[C@H](C)NC(=O)[C@H](CCC(N)=O)NC(=O)[C@H](CC(=O)O)NC(=O)[C@H](CCCNC(=N)N)NC(=O)[C@@H](NC(=O)[C@H](CCC(N)=O)NC(=O)CNC(=O)[C@@H](NC(=O)[C@@H](NC(=O)[C@H](CCCCN)NC(=O)[C@H](CCCCN)NC(=O)[C@H](CC(C)C)NC(=O)[C@H](CCC(=O)O)NC(=O)[C@H](CCCCN)NC(=O)[C@H](CC(N)=O)NC(=O)[C@H](CCSC)NC(=O)[C@H](CO)NC(=O)[C@H](CCC(=O)O)NC(=O)[C@@H](NC(=O)[C@@H](NC(=O)CNC(=O)[C@H](Cc1ccc(O)cc1)NC(=O)c1ccc2c(c1)C(=O)OC21c2ccc(O)cc2Oc2cc(O)ccc21)C(C)C)[C@@H](C)CC)[C@@H](C)CC)[C@@H](C)CC)C(C)C)[C@@H](C)O)C(C)C)C(C)C)C(=O)N[C@@H](Cc1c[nH]cn1)C(=O)N[C@@H](CC(N)=O)C(=O)N[C@@H](CCCCN)C(=O)N[C@@H](CCCCN)C(=O)N[C@@H](C)C(=O)O [fluorescein-grafted HTHi peptide]
- Hill number [13]: 11±3
- binding to Asp366Asn-IBD vs wt IBD [14]: only the wt IBD binds HTHi
